The test system of experiment [1] is Human aortic smooth muscle cells. Put plainly: Smooth muscle cell proliferation assay (anti-proliferation assay, perlecan). Format: cell-based.
Experiment [2] concerns IL-6. Put plainly: TNF-α-induced IL-6 production determined by IL-6 ELISA in HAEC. The settings on record: HAEC; for activity at 10 µM / IC50: Homo sapiens, IL6; for activity at 10 µM: 24 h, Compds tested @ 10 uM, read-out: % IL6 production compare to TNF stimulation of IL6 (100%); for IC50: unit inferred, read-out: IC50 (TNF stimulation of IL6); for Inhibition of TNF-induced IL6 production: class of % of control IL6 production. The format is cell-based, human. How it is done:
Human aortic endothelial cells (HAEC, Clonetics) were cultured according to manufacturer in growth medium (Clonetics): basal medium containing human epidermal growth factor, hydrocortisone, vascular endothelial growth factor, heparin binding growth factor-B, long R3-insulin-like growth factor-1, ascorbic acid, gentamicin/amphotericin and 5% FBS. These cell were allowed to reach at least 90% confluency before subjected to experimental treatments. Glycated human serum albumin (G-HSA) was from US Biologicals. Tumor necrosis factor α was from R&D Systems.
[…] All treatments, compound-added and controls were carried out in serum free media containing 0.2% albumin. Media from all conditions were collected and used for IL-6 ELISA.
(§1) IL-6 ELISA was carried out using human IL-6 DuoSet ELISA development kit as described by manufacturer (R&D Systems). Mouse anti-human Il-6 was used as the capture antibody (2 ug/ml) and biotinylated goat anti-human IL-6 (200 ng/ml) was used as the detection antibody. Culture media were incubated with capture antibody (in 96 well) for 2 h at room temperature. Wells were washed three times with wash buffer (0.05% tween-20 in phosphate buffered saline (PBS) pH 7.4) followed by incubation with detection antibody for 2 h at room temperature. Following three washes wells were incubated with Streptavidin-HRP for 20 min. Color development was read at 450 nm in a Microplate reader.
A general note: An ELISA detects its analyte on a solid surface through an enzyme-linked reagent.

Experiment [3] concerns IL-6. The experiment is described as follows: AGE (G-HSA)-induced inflammatory response determined by IL-6 ELISA in HAEC. The format is cell-based, human. Conditions: Homo sapiens; for activity at 10 µM: 24 h, Compds tested @ 10 uM, IL6, read-out: % IL6 production compare to AGE stimulation of IL6 (100%); for IC50: IL6, unit inferred, read-out: IC50 (AGE stimulation of IL6). How it is done:
Human aortic endothelial cells (HAEC, Clonetics) were cultured according to manufacturer in growth medium (Clonetics): basal medium containing human epidermal growth factor, hydrocortisone, vascular endothelial growth factor, heparin binding growth factor-B, long R3-insulin-like growth factor-1, ascorbic acid, gentamicin/amphotericin and 5% FBS. These cell were allowed to reach at least 90% confluency before subjected to experimental treatments. […] Tumor necrosis factor α was from R&D Systems.
All treatments, compound-added and controls were carried out in serum free media containing 0.2% albumin. Media from all conditions were collected and used for IL-6 ELISA.
as §1

Where [4] appears, read: Homo sapiens, anti-proliferation assay (perlecan), read-out: Activity (note 1).
Setting [5] is: Homo sapiens, anti-proliferation assay (perlecan), read-out: Avg IC-50.
The mark [6] stands for this setting: Homo sapiens, read-out: Activity (note 1).
Setting [7] is: Homo sapiens, read-out: Avg IC-50.

Molecules are shown by their SMILES. Read-outs that look alike come from different tables or passages of the source.

`CN1CCC(N(C)c2nc(Nc3ccc4ccccc4c3)nc(NC3CCCCCC3)n2)CC1` [N^2-cycloheptyl-N^4-methyl-N^4-(1-methyl-piperidin-4-yl)-N^6-naphthalen-2-yl-1,3,5-triazine-2,4,6-triamine]: the “activity in anti-proliferation assay (Perlecan)” value in experiment [1] (same activity scale used in Table 3, in words) is recorded as “high activity”.

Consider `COc1ccc(Nc2nc(Cl)nc(NC3CCCCCC3)n2)cc1F` [Compound 127, 6-Chloro-N-cycloheheptyl-N′-(3-fluoro-4-methoxy-phenyl)-[1,3,5]triazine-2,4-diamine], for which the IC50 in experiment [1] (setting [4]) is over 7 µM; in experiment [1] (setting [5]), 10 µM. The activity at 10 µM with IL-6 [2] worked out at 48%.

Take `COc1ccc(Nc2nc(NC3CCCCCC3)nc(N(C)C3CCN(C)CC3)n2)cc1Cl` [Compound 137, N-(3-Chloro-4-methoxy-phenyl)-N′-cycloheptyl-N″-methyl-N″-(1-methyl-piperidin-4-yl)-[1,3,5]triazine-2,4,6-triamine]: the results for the IC50 in experiment [1] (setting [4]) and in experiment [1] (setting [5]) were 3 to 7 µM and 4 to 5 µM, respectively.

`COc1ccc(Nc2nc(NCC3CCCCC3)nc(N(C)C3CCN(C)CC3)n2)cc1Cl` [Compound 103, N-(3-Chloro-4-methoxy-phenyl)-N′-cyclohexylmethyl-N″-methyl-N″-(1-methyl-piperidin-4-yl)-[1,3,5]triazine-2,4,6-triamine]: the IC50 is over 7 µM in experiment [1] (setting [4]) and about 7 µM in experiment [1] (setting [5]).

With `CCN1CCCC1CNc1nc(NCCN(C)C)nc(Nc2ccc(OC)c(F)c2)n1` (stereo not shown) [Compound 68, N^2-[2-(dimethylamino)ethyl]-N^4-[(1-ethyl-2-pyrrolidinyl)methyl]-N^6-(3-fluoro-4-methoxyphenyl)-1,3,5-triazine-2,4,6-triamine], in the experiment on IL-6 [3], the activity at 10 µM is 40% and the IC50 came to 7.7 µM. Besides, the activity at 10 µM in the experiment with IL-6 [2] is 1%.

On to `CCN1CCCC1CNc1nc(Nc2ccccn2)nc(NC2CCCCCC2)n1` (stereo not shown) [Compound 34, N^2-cycloheptyl-N^4-[(1-ethyl-2-pyrrolidinyl)methyl]-N^6-(2-pyridinyl)-1,3,5-triazine-2,4,6-triamine], for which the values for the activity at 10 µM in the experiment with IL-6 [3] and with IL-6 [2] were 1% and 3%, respectively.

`CCN1CCCC1CNc1nc(NCC2CCCCC2)nc(Nc2ccc(OC)c(F)c2)n1` (stereo not shown) [Compound 65, N^2-(cyclohexylmethyl)-N^4-[(1-ethyl-2-pyrrolidinyl)methyl]-N^6-(3-fluoro-4-methoxyphenyl)-1,3,5-triazine-2,4,6-triamine]: in the experiment with IL-6 [3], the activity at 10 µM turned out to be 45% and the IC50 was 3.24 µM. In the experiment with IL-6 [2], the activity at 10 µM was 1% and the IC50 is 6.7 µM.

For `CCN1CCCC1CNc1nc(NCc2ccccc2)nc(Nc2ccc(OC)c(F)c2)n1` (stereo not shown) [Compound 53, N^2-benzyl-N^4-[(1-ethyl-2-pyrrolidinyl)methyl]-N^6-(3-fluoro-4-methoxyphenyl)-1,3,5-triazine-2,4,6-triamine], the activity at 10 µM in the experiment on IL-6 [3] came to 32%; in the experiment with IL-6 [2], 1%.

Turning to `COc1ccc(Nc2nc(NCCCN3CCCC3=O)nc(NC3CCCCCC3)n2)cc1F` [Compound 99, 1-[3-({4-(cycloheptylamino)-6-[(3-fluoro-4-methoxyphenyl)amino]-1,3,5-triazin-2-yl}amino)propyl]-2-pyrrolidinone], the activity at 10 µM came to 8% with IL-6 [3] and 39% in the experiment on IL-6 [2]. In addition, in the experiment with IL-6 [3], the IC50 turned out to be 6.04 µM.

For the molecule `CCN1CCCC1CNc1nc(Nc2ccc(OC)c(F)c2)nc(NC2CCCCCC2)n1` (stereo not shown) [Compound 95, N^2-cycloheptyl-N^4-[(1-ethyl-2-pyrrolidinyl)methyl]-N^6-(3-fluoro-4-methoxyphenyl)-1,3,5-triazine-2,4,6-triamine], the IC50 in experiment [1] (setting [4]) was over 7 µM; in experiment [1] (setting [5]), 7.3 µM; with IL-6 [3], 6.6 µM; with IL-6 [2], 2.8 µM. The results for the activity at 10 µM with IL-6 [3] and in the experiment on IL-6 [2] were 1% and 5%, respectively. Besides, the “Inhibition of TNF-induced IL6 production” value with IL-6 [2] is “++++ (between 0 and about 25% of IL6 production compared to cells that did not receive compound (or per cent of control IL6 production))”.

On to `CCN1CCC[C@H]1CNc1nc(Nc2ccc(OC)c(F)c2)nc(NC2CCCCCC2)n1` [Compound 139, N^2-cycloheptyl-N^4-((S)-1-ethyl-pyrrolidin-2-ylmethyl)-N^6-(3-fluoro-4-methoxyphenyl)-1,3,5-triazine-2,4,6-triamine], for which, in experiment [1] (setting [6]), the IC50 lay in the range of 3 to 7 µM. The IC50 in experiment [1] (setting [7]) was in the range of 4 to 5 µM. For the same molecule, in the experiment on IL-6 [2], the “Inhibition of TNF-induced IL6 production” value was “++++ (between 0 and about 25% of IL6 production compared to cells that did not receive compound (or per cent of control IL6 production))”; the activity at 10 µM is 16.1%.

For the molecule `CCN1CCCC1CNc1nc(Nc2ccc(N3CCOCC3)cc2)nc(NC2CCCCCC2)n1` (stereo not shown) [Compound 27, N^2-cycloheptyl-N^4-[(1-ethyl-2-pyrrolidinyl)methyl]-N^6-[4-(4-morpholinyl)phenyl]-1,3,5-triazine-2,4,6-triamine], the values for the activity at 10 µM in the experiment with IL-6 [3] and in the experiment on IL-6 [2] were 1% and 3%, respectively.

On to `CCN1CCCC1CNc1nc(NCc2ccco2)nc(Nc2ccc(OC)c(F)c2)n1` (stereo not shown) [Compound 66, N^2-[(1-ethyl-2-pyrrolidinyl)methyl]-N^4-(3-fluoro-4-methoxyphenyl)-N^6-(2-furylmethyl)-1,3,5-triazine-2,4,6-triamine], for which the activity at 10 µM in the experiment with IL-6 [3] is 23%; in the experiment with IL-6 [2], 1%.

As for `CCCC(CCC)Nc1nc(Nc2ccc(OC)c(Cl)c2)nc(N(C)C2CCN(C)CC2)n1` [Compound 105, N-(3-Chloro-4-methoxy-phenyl)-N′-methyl-N′-(1-methyl-piperidin-4-yl)-N″-(1-propyl-butyl)-[1,3,5]triazine-2,4,6-triamine], the IC50 in experiment [1] (setting [4]) is over 7 µM; in experiment [1] (setting [5]), about 7 µM.

As for `CCN1CCCC1CNc1nc(NCCCn2ccnc2)nc(Nc2ccc(OC)c(F)c2)n1` (stereo not shown) [Compound 75, N^2-[(1-ethyl-2-pyrrolidinyl)methyl]-N^4-(3-fluoro-4-methoxyphenyl)-N^6-[3-(1H-imidazol-1-yl)propyl]-1,3,5-triazine-2,4,6-triamine], the activity at 10 µM with IL-6 [3] stood at 46%; with IL-6 [2] it was 43%.

For `CCN1CCC[C@@H]1CNc1nc(Nc2ccc(OC)c(F)c2)nc(NC2CCCCCC2)n1` [Compound 140, N^2-cycloheptyl-N^4-((R)-1-ethyl-pyrrolidin-2-ylmethyl)-N^6-(3-fluoro-4-methoxyphenyl)-1,3,5-triazine-2,4,6-triamine], the IC50 in experiment [1] (setting [6]) lay within 3 to 7 µM. The IC50 in experiment [1] (setting [7]) was in the range of 4 to 5 µM. In the experiment on IL-6 [2], the “Inhibition of TNF-induced IL6 production” value was “++++ (between 0 and about 25% of IL6 production compared to cells that did not receive compound (or per cent of control IL6 production))”; the activity at 10 µM is 12.6%.

Take `CCN1CCCC1CNc1nc(Nc2ccc(OC)c(F)c2)nc(N2CCN(CC(=O)N3CCCC3)CC2)n1` (stereo not shown) [Compound 69, N^2-[(1-ethyl-2-pyrrolidinyl)methyl]-N^4-(3-fluoro-4-methoxyphenyl)-N^6-{4-[2-oxo-2-(1-pyrrolidinyl)ethyl]-1-piperazinyl}-1,3,5-triazine-2,4-diamine]: the activity at 10 µM amounted to 5% in the experiment with IL-6 [3] and 1% with IL-6 [2].

Consider `CCN1CCCC1CNc1nc(NCC2CCCN2CC)nc(Nc2ccc(OC)c(F)c2)n1` (stereo not shown) [Compound 70, N^2,N^4-bis[(1-ethyl-2-pyrrolidinyl)methyl]-N^6-(3-fluoro-4-methoxyphenyl)-1,3,5-triazine-2,4,6-triamine], for which the activity at 10 µM in the experiment with IL-6 [3] turned out to be 35%; with IL-6 [2], 1%.

Regarding `CCN(CC)c1ccc(Nc2nc(NCC3CCCN3CC)nc(NC3CCCCCC3)n2)cc1Cl` (stereo not shown) [Compound 163], the IC50 is over 7 µM in experiment [1] (anti-proliferation assay (perlecan), read-out: Activity (note 1)) and 8 to 10 µM in experiment [1] (anti-proliferation assay (perlecan), read-out: Avg IC-50).

With `COc1ccc(Nc2nc(NC3CCCCCC3)nc(N(C)C3CCN(C)CC3)n2)cc1Br` [Compound 170], the IC50 was over 7 µM in experiment [1] (setting [4]) and 8 to 9 µM in experiment [1] (setting [5]).

Consider `CCN1CCCC1CNc1nc(Nc2ccc(OC)c(F)c2)nc(N2CCCC2)n1` (stereo not shown) [Compound 57, N^2-[(1-ethyl-2-pyrrolidinyl)methyl]-N^4-(3-fluoro-4-methoxyphenyl)-6-(1-pyrrolidinyl)-1,3,5-triazine-2,4-diamine], for which the activity at 10 µM in the experiment with IL-6 [3] is 25%; with IL-6 [2], 1%.

The record behind these values is patent US7169785B2, “Methods and compositions of novel triazine compounds” (Reddy US Therapeutics, Inc., priority 2001, dated 2007).
